# In patent US20210330611A1, “THERAPY FOR NEUROLOGICAL DISEASES/DISORDERS” (priority 2020, published 2021):
# Structures can show the parent of a compound that is named as a salt. Where two headings read alike, the source gives them in different places.
# Key:
# primary rat microglia [1] = system: primary rat microglia;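 for Fibrin % cell toxicity: share of dead cells sized under 150 µm2 at 10 µM in fibrin-stimulated microglia HTS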
# [2] = system: fibrin-induced microglia activation; assay: Image-based assay of fibrin-induced microglia activation (HTS and dose response); assay type: cell-based, rat; conditions: for inhibition at 10 µM: Rattus norvegicus, Microglia, read-out: Fibrin % inhibition
# [3] = system: fibrin- and LPS-induced microglia activation; assay: cells; assay type: cell-based, rat
# primary rat microglia [4] = system: primary rat microglia; remark: listed apart in the source;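 for Fibrin % cell toxicity: share of dead cells sized under 150 µm2 at 10 µM in fibrin-stimulated microglia HTS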
# [5] = system: LPS-induced microglia activation; assay: Image-based assay of LPS-induced microglia activation (HTS and dose response); assay type: cell-based, rat
# [6] = classification by fibrin and LPS inhibition, HTS at 10 μM
# [7] = Rattus norvegicus, Microglia, primary microglia HTS, LPS stimulation, compounds at 10 μM; read-out: LPS % inhibition
# [8] = primary microglia HTS, fibrin stimulation, increased cell size (>800 μm^2) as marker of activation
# [9] = quadrant by fibrin and LPS inhibition in HTS of 1907 compounds
# [10] = Rattus norvegicus, Microglia, 48 h, primary microglia HTS, LPS stimulation; increased cell size (>800 μm^2) as marker of activation; read-out: LPS % inhibition
# [11] = primary microglia HTS, fibrin stimulation, compounds at 10 μM
# [12] = quadrant by fibrin and LPS inhibition, HTS at 10 μM
# [13] = Rattus norvegicus, Microglia, read-out: LPS % inhibition
# [14] = Rattus norvegicus, Microglia, 48 h, read-out: LPS % inhibition
smiles,measurement,setting,value
COc1ccc([C@@H]2Sc3ccccc3N(CCN(C)C)C(=O)[C@@H]2OC(C)=O)cc1 [Diltiazem],Fibrin % cell toxicity,primary rat microglia [1]; rat,1%
same,Fibrin % inhibition,"[2]; primary microglia HTS, fibrin stimulation, compounds at 10 μM, 10 µM",21%
same,Quadrant (FIG. 5b),[3]; [6],Q4
same,LPS % cell toxicity,primary rat microglia [4]; rat,0%
same,inhibition at 10 µM,[5]; [7],9%
CN(Cc1cnc2nc(N)nc(N)c2n1)c1ccc(C(=O)N[C@@H](CCC(=O)O)C(=O)O)cc1 [Methotrexate],Fibrin % cell toxicity,primary rat microglia [1]; rat,1%
same,inhibition at 10 µM,[2]; [8],-32%
same,Quadrant (FIG. 5b),[3]; [9],Q4
same,LPS % cell toxicity,primary rat microglia [4]; rat,0%
same,inhibition at 10 µM,[5]; [10],-4%
OCCc1ccccc1 [2-Phenyl-Ethanol],Fibrin % cell toxicity,primary rat microglia [1]; rat,1%
same,inhibition at 10 µM,[2]; [11],-6%
same,Quadrant (FIG. 5b),[3]; [12],Q4
same,LPS % cell toxicity,primary rat microglia [4]; rat,0%
same,inhibition at 10 µM,[5]; [7],15%
NC(CO)C(=O)NNCc1ccc(O)c(O)c1O (stereo not drawn) [Benserazide],Fibrin % cell toxicity,primary rat microglia [1]; rat,0%
same,inhibition at 10 µM,[2]; [11],-16%
same,Quadrant (FIG. 5b),[3]; [12],Q4
same,LPS % cell toxicity,primary rat microglia [4]; rat,0%
same,inhibition at 10 µM,[5]; [7],8%
"NC(=O)CC[C@H](N)C(=O)O [L-glutamine, Glutamine (I)]",Fibrin % cell toxicity,primary rat microglia [1],0%
same,Fibrin % inhibition,"[2]; primary microglia HTS, fibrin stimulation, activation = cell size >800 μm2",4%
same,Quadrant (FIG. 5b),[3]; [9],Q4
same,LPS % cell toxicity,primary rat microglia [4],0%
same,LPS % inhibition,"[5]; primary microglia HTS, LPS stimulation, activation = cell size >800 μm2",14%
NCCCNCCSP(=O)(O)O [Amifostine],Fibrin % cell toxicity,primary rat microglia [1]; rat,0%
same,inhibition at 10 µM,[2]; [11],-38%
same,Quadrant (FIG. 5b),[3]; [12],Q4
same,LPS % cell toxicity,primary rat microglia [4]; rat,0%
same,inhibition at 10 µM,[5]; [7],15%
CCCC(C)C1(CC)C(=O)NC(=S)NC1=O (stereo not drawn) [Thiopental],Fibrin % cell toxicity,primary rat microglia [1]; rat,0%
same,inhibition at 10 µM,[2],3%
same,Quadrant (FIG. 5b),[3],Q4
same,LPS % cell toxicity,primary rat microglia [4]; rat,0%
same,inhibition at 10 µM,[5]; [13],13%
O=P1(N(CCCl)CCCl)NCCCO1 (stereo not drawn),Fibrin % cell toxicity,primary rat microglia [1],0%
same,Fibrin % inhibition,[2]; 10 µM,−15%
same,Quadrant (FIG. 5b),[3],Q4
same,LPS % cell toxicity,primary rat microglia [4],0%
same,LPS % inhibition,[5]; 10 µM,12%
CCOC(=O)C1=C[C@]2(CC)CCCN3CCc4c(n1c1ccccc41)[C@@H]32 [Vinpocetine],Fibrin % cell toxicity,primary rat microglia [1]; rat,0%
same,inhibition at 10 µM,"[2]; primary microglia HTS, 10 μM, fibrin-stimulated, cell size >800 μm^2 as marker of activation",-19%
same,Quadrant (FIG. 5b),"[3]; HTS of 1907 compounds, quadrant by fibrin and LPS inhibition",Q4
same,LPS % cell toxicity,primary rat microglia [4]; rat,0%
same,inhibition at 10 µM,"[5]; Rattus norvegicus, Microglia, primary microglia HTS, 10 μM, LPS-stimulated, cell size >800 μm^2 as marker of activation; read-out: LPS % inhibition",0%
CNC(=C[N+](=O)[O-])NCCSCc1csc(CN(C)C)n1 [Nizatidine],Fibrin % cell toxicity,primary rat microglia [1]; rat,0%
same,inhibition at 10 µM,[2]; [8],-18%
same,Quadrant (FIG. 5b),[3]; [9],Q4
same,LPS % cell toxicity,primary rat microglia [4]; rat,0%
same,inhibition at 10 µM,[5]; [10],14%
O=C(O)c1cc(-c2ccc(F)cc2F)ccc1O [Diflunisal],Fibrin % cell toxicity,primary rat microglia [1]; rat,0%
same,inhibition at 10 µM,[2]; [11],-62%
same,Quadrant (FIG. 5b),[3]; [6],Q4
same,LPS % cell toxicity,primary rat microglia [4]; rat,0%
same,inhibition at 10 µM,[5]; [7],15%
Cn1cnc([N+](=O)[O-])c1Sc1ncnc2nc[nH]c12 [Azathioprine],Fibrin % cell toxicity,primary rat microglia [1]; rat,0%
same,inhibition at 10 µM,[2],-14%
same,Quadrant (FIG. 5b),[3],Q4
same,LPS % cell toxicity,primary rat microglia [4]; rat,0%
same,inhibition at 10 µM,[5]; [13],16%
O=c1n(CCCN2CCN(c3cccc(Cl)c3)CC2)nc2ccccn12 [Trazodone],Fibrin % cell toxicity,primary rat microglia [1]; rat,0%
same,inhibition at 10 µM,[2],-10%
same,Quadrant (FIG. 5b),[3],Q4
same,LPS % cell toxicity,primary rat microglia [4]; rat,0%
same,inhibition at 10 µM,[5]; [13],-2%
CN(C)[C@@H]1C(O)=C(C(N)=O)C(=O)[C@@]2(O)C(O)=C3C(=O)c4c(O)cccc4[C@@](C)(O)[C@H]3C[C@@H]12 [Tetracycline],Fibrin % cell toxicity,primary rat microglia [1]; rat,0%
same,inhibition at 10 µM,[2],7%
same,Quadrant (FIG. 5b),[3],Q4
same,LPS % cell toxicity,primary rat microglia [4]; rat,0%
same,inhibition at 10 µM,[5]; [13],19%
Nc1nc(Cl)nc2c1ncn2[C@H]1C[C@H](O)[C@@H](CO)O1 [Cladribine],Fibrin % cell toxicity,primary rat microglia [1]; rat,1%
same,inhibition at 10 µM,"[2]; primary HTS, 10 μM, fibrin-stimulated primary microglia",-23%
same,Quadrant (FIG. 5b),"[3]; primary HTS, 10 μM",Q4
same,LPS % cell toxicity,primary rat microglia [4]; rat,0%
same,inhibition at 10 µM,"[5]; Rattus norvegicus, Microglia, primary HTS, 10 μM, LPS-stimulated primary microglia; read-out: LPS % inhibition",6%
NNCCc1ccccc1 [Phenelzine],Fibrin % cell toxicity,primary rat microglia [1]; rat,1%
same,inhibition at 10 µM,[2],2%
same,Quadrant (FIG. 5b),[3],Q4
same,LPS % cell toxicity,primary rat microglia [4]; rat,0%
same,inhibition at 10 µM,[5]; [14],-4%
CC(C)NCC(O)c1ccc2ccccc2c1 (stereo not drawn) [Pronetalol Hydrochloride],Fibrin % cell toxicity,primary rat microglia [1]; rat,1%
same,inhibition at 10 µM,"[2]; primary microglia HTS, fibrin stimulation, cell size >800 μm2 as marker of activation",-12%
same,Quadrant (FIG. 5b),[3]; classification by fibrin and LPS inhibition in HTS,Q4
same,LPS % cell toxicity,primary rat microglia [4]; rat,0%
same,inhibition at 10 µM,"[5]; Rattus norvegicus, Microglia, 48 h; read-out: LPS % inhibition",10%
CC(C)CN(C[C@@H](O)[C@H](Cc1ccccc1)NC(=O)O[C@H]1CCOC1)S(=O)(=O)c1ccc(N)cc1 [Amprenavir],Fibrin % cell toxicity,primary rat microglia [1]; rat,1%
same,inhibition at 10 µM,[2]; [11],-10%
same,Quadrant (FIG. 5b),[3]; [12],Q4
same,LPS % cell toxicity,primary rat microglia [4]; rat,0%
same,inhibition at 10 µM,[5]; [7],6%
CO[C@H]1/C=C/O[C@@]2(C)Oc3c(C)c(O)c4c(O)c(c(/C=N/N5CCN(C)CC5)c(O)c4c3C2=O)NC(=O)/C(C)=C\C=C\[C@H](C)[C@H](O)[C@@H](C)[C@@H](O)[C@@H](C)[C@H](OC(C)=O)[C@@H]1C [Rifampicin],Fibrin % cell toxicity,primary rat microglia [1]; rat,1%
same,Fibrin % inhibition,[2],−21%
same,Quadrant (FIG. 5b),[3],Q4
same,LPS % cell toxicity,primary rat microglia [4]; rat,0%
same,LPS % inhibition,[5],7%
CC1CCc2c(N3CCC(O)CC3)c(F)cc3c(=O)c(C(=O)O)cn1c23 (stereo not drawn) [Nadifloxacin],Fibrin % cell toxicity,primary rat microglia [1]; rat,1%
same,inhibition at 10 µM,[2]; [8],-14%
same,Quadrant (FIG. 5b),[3]; [9],Q4
same,LPS % cell toxicity,primary rat microglia [4]; rat,0%
same,inhibition at 10 µM,[5]; [10],10%
Clc1ccccc1CN1CCc2sccc2C1 [Ticlopidine],Fibrin % cell toxicity,primary rat microglia [1]; rat,1%
same,inhibition at 10 µM,[2],-13%
same,LPS % cell toxicity,primary rat microglia [4]; rat,0%
same,inhibition at 10 µM,[5]; [13],22%
NCC(=O)CCC(=O)O [Aminolevulinic acid],Fibrin % cell toxicity,primary rat microglia [1]; rat,1%
same,inhibition at 10 µM,[2]; [11],-4%
same,Quadrant (FIG. 5b),[3]; [12],Q4
same,LPS % cell toxicity,primary rat microglia [4]; rat,0%
same,inhibition at 10 µM,[5]; [7],10%
O.OC[C@@H](O)[C@@H](O[C@@H]1O[C@H](CO)[C@H](O)[C@H](O)[C@H]1O)[C@H](O)[C@@H](O)CO [D-lactitol Monohydrate],Fibrin % cell toxicity,primary rat microglia [1],1%
same,Fibrin % inhibition,[2]; [11],11%
same,Quadrant (FIG. 5b),[3]; [6],Q4
same,LPS % cell toxicity,primary rat microglia [4],0%
same,LPS % inhibition,"[5]; primary microglia HTS, LPS stimulation, compounds at 10 μM",16%
NC(=O)c1cccnc1 [Nicotinamide],Fibrin % cell toxicity,primary rat microglia [1]; rat,1%
same,inhibition at 10 µM,[2],-8%
same,Quadrant (FIG. 5b),[3],Q4
same,LPS % cell toxicity,primary rat microglia [4]; rat,0%
same,inhibition at 10 µM,[5]; [14],16%
Cl.N=C(N)NCCC[C@H](N)C(=O)O [Arginine Hydrochloride],Fibrin % cell toxicity,primary rat microglia [1]; rat,0%
same,inhibition at 10 µM,[2]; [11],9%
same,Quadrant (FIG. 5b),[3]; [12],Q4
same,LPS % cell toxicity,primary rat microglia [4]; rat,2%
same,inhibition at 10 µM,[5]; [7],42%
CN(C)CCCN1c2ccccc2CCc2ccccc21 [Imipramine],Fibrin % cell toxicity,primary rat microglia [1]; rat,0%
same,inhibition at 10 µM,[2]; [8],-4%
same,LPS % cell toxicity,primary rat microglia [4]; rat,1%
same,inhibition at 10 µM,[5]; [10],60%
CC(=O)Nc1ccc(O)cc1 [Acetaminophen],Fibrin % cell toxicity,primary rat microglia [1]; rat,0%
same,inhibition at 10 µM,[2],14%
same,LPS % cell toxicity,primary rat microglia [4]; rat,0%
same,inhibition at 10 µM,[5]; [13],22%
COc1cc2nc(N3CCN(C(=O)c4ccco4)CC3)nc(N)c2cc1OC [Prazosin],Fibrin % cell toxicity,primary rat microglia [1]; rat,3%
same,inhibition at 10 µM,[2]; [8],43%
same,LPS % cell toxicity,primary rat microglia [4]; rat,77%
same,inhibition at 10 µM,[5]; [10],118%
CN(C)CCC=C1c2ccccc2COc2ccccc21 [Doxepin],Fibrin % cell toxicity,primary rat microglia [1]; rat,1%
same,Quadrant (FIG. 5b),[3],Q4
same,LPS % cell toxicity,primary rat microglia [4]; rat,0%
same,LPS % inhibition,[5]; 10 µM,13%
same,inhibition at 10 µM,[5]; [13],16%
